The values below come from patent publication US20260325661A1, “ANTIBODY-CONJUGATED IMMUNO-ACTIVATING SMALL MOLECULE COMPOUND, AND USE” (SHENZHEN CONJUGENIX PHARMACEUTICAL TECHNOLOGY CO., LTD, priority 2023, published 2026).

Where two headings read alike, the source gives them in different places.

For experiment [1], the system named is human peripheral blood mononuclear cells (PBMCs). Briefly: ELISA assay of immunocyte activator: induction of IFN-γ in human PBMCs. It counts as cell-based. The conditions noted are these: 24 h, 37 °C, no pretreatment marked, read-out: EC50 IFN-γ ratio (inducing human PBMCs to produce IFN-γ). The gist of the method: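 PBMCs from heparinized blood of healthy donors, isolated by density-gradient centrifugation, seeded at 2×10^5 cells per well. Treated with ten concentrations from 0.0001 to 10 μM in RPMI medium containing 0.1 DMSO; IFN-γ measured by ELISA and EC50 derived.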

In experiment [2] the test system is MC38-hPD-L1 cells. As to the kind of experiment: Tumor inhibition assay in mice bearing MC38-hPD-L1 colon cancer. It counts as in vivo, mouse. Conditions: PD-L1 antibody 3 mg/kg, intraperitoneal, Day 8 and Day 12 after inoculation. The protocol:
MC38-hPD-L1 cells (a humanized MC38 colon cancer cell line expressing human PD-L1 protein, Shanghai Model Organisms Center, Inc.) in the logarithmic phase were collected by digestion and centrifugation, and washed with PBS twice before counting, and the cell concentration was adjusted to 2.3×10^5 cells/mL. The mice were 6-week-old SPF-grade humanized C57BL/6 mice. The right back of the mice was shaved completely with a shaver, and 100 μL of the cell suspension was aspirated with a syringe and injected subcutaneously into the back of the mice after removing bubbles. When the tumor diameter reached 4-5 mm, administration was started.
Assessment of therapeutic effect on tumor-bearing mice and antitumor effect of the compounds: tumor-bearing mice (BALB/c) were randomly divided into control group, Atezolizumab antibody group (PD-L1 antibody group), and PD-L1-KX conjugate group (Atezolizumab-conjugated compound KX) (5 mice per group). […] The tumor was measured with a vernier caliper and the survival of the mice was recorded every three days at the beginning of administration and after administration. The tumor volume was calculated by the following method: 0.5×a×b^2, wherein a is the long-axis diameter and b is the short-axis diameter. […]

`CCCCOc1nc(N)c2[nH]c(=O)n(Cc3cn(CCN)nn3)c2n1` [KJ-032]: the EC50 in experiment [1] (Homo sapiens, PBMC) is 0.11 µM. On to `C=C(CN1CCC(Cn2c(=O)[nH]c3c(N)nc(O[C@@H](C)CCC)nc32)CC1)C(=O)OCC` [KJ-096], for which the EC50 in experiment [1] (Homo sapiens, PBMC) was 0.003 µM. For the molecule `C=C(CN1CCC(Cn2c(=O)[nH]c3c(N)nc(O[C@@H](C)CCC)nc32)CC1)C(=O)O` [KJ-097], the EC50 in experiment [1] (Homo sapiens, PBMC) was 0.001 µM. Still for that read-out and setting: to `C=C(CN1CCC(Cn2c(=O)[nH]c3c(N)nc(OCCCC)nc32)CC1)C(=O)OCC` [KJ-098] belongs 0.31 µM. Still for that read-out and setting: for `C=C(CN1CCC(Cn2c(=O)[nH]c3c(N)nc(OCCCC)nc32)CC1)C(=O)O` [KJ-099] the value was 0.42 µM. On the same count and under the same terms, for `CCC[C@H](C)Oc1nc(N)c2[nH]c(=O)n(CC3CCN(C(=O)/C=C/C(=O)c4ccc(OC)cc4)CC3)c2n1` [KJ-102] the value was 0.003 µM; for `CCCCOc1nc(N)c2[nH]c(=O)n(CC3CCN(C(=O)/C=C/C(=O)c4ccc(OC)cc4)CC3)c2n1` [KJ-104], 0.009 µM. For `C=C(CC(=O)O)C(=O)NCc1ccc(Cn2c(=O)[nH]c3c(N)nc(OCCOC)nc32)cc1` [KJ-138], in experiment [1] (Homo sapiens, PBMC), the EC50 came to 0.05 µM. The same measure, in the same setting: to `CCCCOc1nc(N)c2[nH]cc(Cc3ccc4c(c3)CNCC4)c2n1` [PMQ-1, reference compound] belongs 0.32 µM. For `COCCOc1nc(N)c2[nH]c(=O)n(Cc3ccc(CNC(=O)CCC(=O)O)cc3)c2n1` [SZU-101, reference compound], the EC50 in experiment [1] turned out to be 0.5 µM. With `C=C(CC)C(=O)c1ccc(OCC(=O)NCc2ccc(Cn3c(=O)[nH]c4c(N)nc(OCCOC)nc43)cc2)c(Cl)c1Cl` [SZU-103, reference compound], the EC50 in experiment [1] (Homo sapiens, PBMC) was found to be 0.1 µM.

As for `C#CCCCCC(NC(=O)CCC(=O)NCc1ccc(Cn2c(=O)[nH]c3c(N)nc(OCCOC)nc32)cc1)C(=O)O` (stereo not shown) [SZU-115, reference compound], the EC50 in experiment [1] (listed as GY115, 1440 min) is 0.3 µM.

In the case of `C#CCCC(=O)NCc1ccc(Cn2c(=O)[nH]c3c(N)nc(OCCOC)nc32)cc1` [SZU-136, reference compound], the EC50 in experiment [1] (Homo sapiens, PBMC) is 0.37 µM. The same measure, in the same setting: for `COCCOc1nc(N)c2[nH]c(=O)n(Cc3ccc(CNC(=O)CCC(=O)NC(CCCCc4cn(CCOCCOCCOc5c(OC)cc(/C=C/C(=O)N6CCC=CC6=O)cc5OC)nn4)C(=O)O)cc3)c2n1` (stereo not shown) [SZU-191] the value was 0.1 µM; for `C=C(CC(=O)OC)C(=O)NCc1ccc(Cn2c(=O)[nH]c3c(N)nc(OCCOC)nc32)cc1` [SZU-275], 0.001 µM.

With “Atezolizumab: PD-L1 antibody purchased from MedChemExpress (Atezolizumab, CAS number: 1380723-44-3)”, the “tumor volume inhibition rate (Atezolizumab as control)” value in experiment [2] is listed as 67%.
